Literature values, collected in patent publication US6821979B2, “Synergistic enhancement of cognitive ability” (Blanchette Rockefeller Neurosciences Institute, priority 2002, dated 2004).

Experiments:
carbonic anhydrase [1] = details: conscious animals; CNS administration; other sensory and/or locomotor behaviors not affected
carbonic anhydrase [2] = details: single dose; electroencephalogram during rapid-eye-movement sleep
carbonic anhydrase [3] = details: rats; CNS administration
[4] = theophylline alone; literature studies

Compound: CC(=O)Nc1nnc(S(N)(=O)=O)s1 [acetazolamide]
- spatial learning (carbonic anhydrase [1]): impairs spatial learning
- reduction of magnitudes of θ-wave frequency activity (carbonic anhydrase [2]): 50%

Compound: c1c[nH]cn1 [imidazole]
- ability to learn a water-maze task and to recall the maze from memory (carbonic anhydrase [3]): significantly enhances

Compound: N[C@@H](Cc1ccccc1)C(=O)O [phenylalanine]
- ability to learn a water-maze task and to recall the maze from memory (carbonic anhydrase [3]): significantly enhances

Compound: Cn1c(=O)c2[nH]cnc2n(C)c1=O [theophylline]
- effect on cognition [4]: insignificant
